Results reported in patent EP0548931A1, “Material for controlling pests” (SUMITOMO CHEMICAL COMPANY, LIMITED, priority 1991, dated 1993).

What was measured:
[1] = test system: sweetpotato whiteflies; test: Test Example 11: yellow polyethylene sheet (Production Example 9), pest-controlling effect, count of adults; type: in vivo, Bemisia tabaci
Procedure: Ninety-eight parts by weight of a polyethylene resin (Sumikathene®; a registered trade mark of Sumitomo Chemical Co., Ltd.), 1 part by weight of pyriproxyfen, a juvenile hormone-like compound, and 1 part by weight of a polyethylene colored master batch for yellow coloration (SPEM 305 produced by Sumika Color Co., pigment content: 12 wt.%) are kneaded with a pressure kneader and then pelletized. The resulting pellet is extruded through an extruder equipped with a T-dies at 160° to 180°C to obtain a sheet-form material for controlling pests of 1 mm in thickness. A sheet-like material for controlling pests prepared according to Production Example 9 was formed into a size of 15 cm x 15 cm. It was set at the same height as that of a container (80 cm x 112 cm x 45 cm) in which tomato having greenhouse whiteflies parasitized thereon had been planted. On the other hand, a yellow film containing no insect growth regulator was set as a control in the same manner as in setting the above material for controlling pests. On the predetermined day, the number of greenhouse whitefly adults parasitized on the tomato was counted. In the same manner as in Test Example 10, the pest-controlling effect on sweetpotato whiteflies was examined.

[2] = test system: sweetpotato whitefly; test: Test Example 4: yellow cloth with cotton seed oil solution in net cage, hatching inhibitory effect on eggs; type: in vivo, Bemisia tabaci; conditions: after 48 hours, kidney bean
Procedure: Materials for controlling pests containing pyriproxyfen in amounts of 5.3 mg/cm², 2.7 mg/cm² and 0.5 mg/cm², respectively, were prepared by dissolving the corresponding amounts of pyriproxyfen in a cotton seed oil and coating every solution thus obtained onto a yellow cloth of 15 cm x 15 cm in size to allow the cloth to absorb the solution. Every cloth was set on one wall surface of a nylon net cage (30 cm x 30 cm x 30 cm). Kidney bean planted in a pot was placed at the center of the cage, and sweetpotato whitefly adults were released in the cage. After 48 hours, the hatching inhibitory effect on eggs from the adults was examined.

[3] = test system: sweetpotato whitefly; test: Test Example 9: yellow Kent paper (Production Example 8) in net cage, hatching inhibition; type: in vivo, Bemisia tabaci; conditions: yellow Kent paper 15 cm x 15 cm, 1 g/m², Solvesso 200; eggs laid on kidney bean
Procedure: Ten parts of the insect growth regulator is dissolved in 90 parts of a mineral oil. 0.225 Gram of the resulting solution is absorbed in a square yellow Kent paper having a side of 15 cm to obtain a material for controlling pests containing 1 g/m² of the active ingredient. A material for controlling pests containing pyriproxyfen (insect growth regulator) and Solvesso 200 (mineral oil) prepared according to Production Example 8 was formed into a size of 15 cm x 15 cm. It was set on one wall surface of a nylon net cage of 30 cm x 30 cm x 30 cm in size. About 100 adults of sweetpotato whitefly were released in the cage together with kidney bean on which the adults had been parasitized. One day after release of the adults, a potted kidney bean having no adults parasitized thereon was set in the cage for oviposition. Among the eggs laid on the potted kidney bean until the next day, the number of untached eggs was counted.

[4] = test system: Thrips palmi; test: Test Example 3: blue cloth material (Production Example 3) in glass vessel with cucumber seedlings, count of adults; type: in vivo; conditions: 0.16 mg/cm², 28° ±1°C
Procedure: The same procedure as in Production Example 2 is repeated except that a blue cloth replaces the yellow cloth, to obtain a material for controlling pests containing 0.16 mg/cm² of the active ingredient.
Soil was placed on the bottom of a glass vessel of 70 cm x 35 cm x 35 cm in size. Three cucumber seedlings, on which Thrips palmi had been parasitized, were planted at the central part of the glass vessel. After three days, a material for controlling pests with pyriproxyfen as insect growth regulator prepared according to Production Example 3 was formed into a size of 15 cm x 15 cm and set at a height of 5 cm above the ground. On the other hand, the same test was carried out using a blue cloth containing no insect growth regulator as a control.
On the predetermined day, the number of Thrips palmi adults parasitized on the cucumbers was counted. The tests were carried out in a room kept at 28° ±1°C.

[5] = test system: sweetpotato whiteflies; test: Test Example 2: yellow cloth material (Production Example 2), pest-controlling effect, count of adults; type: in vivo, Bemisia tabaci; conditions: 0.16 mg/cm²
Procedure: 0.4 Part of the insect growth regulator is dissolved in 40 parts of acetone and further 0.8 part of rape seed oil is added thereto. Thirty-one milliliters of the resulting solution is absorbed in a yellow cloth of 21 cm x 92 cm in size. Acetone is then vaporized to obtain a material for controlling pests containing 0.16 mg/cm² of the active ingredient. A material for controlling pests with pyriproxyfen as insect growth regulator was prepared according to Production Example 2. It was set at the same height as that of a container (80 cm x 112 cm x 45 cm) in which tomato having greenhouse whiteflies parasitized thereon had been planted. On the other hand, a yellow cloth containing no insect growth regulator was set as a control at a distance of about 8 m. On the predetermined day, the number of greenhouse whitefly adults parasitized on the tomato was counted. Table 1 In the same manner as in Test Example 1, the pest-controlling effect on sweetpotato whiteflies was examined.

[6] = test system: sweetpotato whitefly; test: Test Example 8: yellow Kent paper (Production Example 7) in net cage, hatching inhibition; type: in vivo, Bemisia tabaci; conditions: yellow Kent paper 15 cm x 15 cm, 0.01 g/m², cotton seed oil; eggs laid on kidney bean
Procedure: 0.01 Part of the insect growth regulator is dissolved in 99.99 parts of a vegetable oil. The resulting solution is applied to a roll of yellow Kent paper of 50 cm in width and 2,000 m in length by gravure printing to obtain material for controlling pests containing 0.01 g/m² of the active ingredient. A material for controlling pests containing pyriproxyfen (insect growth regulator) and a cotton seed oil (vegetable oil) prepared according to Production Example 7 was formed into a size of 15 cm x 15 cm. It was set on one wall surface of a nylon net cage of 30 cm x 30 cm x 30 cm in size. About 100 adults of sweetpotato whitefly were released in the cage together with kidney bean on which the adults had been parasitized. One day after release of the adults, a potted kidney bean having no adults parasitized thereon was set in the cage for oviposition. Among the eggs laid on the potted kidney bean until the next day, the number of unhatched eggs was counted.

With `CC(COc1ccc(Oc2ccccc2)cc1)Oc1ccccn1` (stereo not drawn) [pyriproxyfen, 4-phenoxyphenyl 2-(2-pyridyloxy)propyl ether] the “number of sweetpotato whitefly adults (pest-controlling effect)” value (from here on “number of sweetpotato whitefly adults”) ([1]; 0 days elapsed after setting) was 70, the “number of sweetpotato whitefly adults” value ([1]; 7 days elapsed after setting) was 30 and the “number of sweetpotato whitefly adults” value ([1]; 14 days elapsed after setting) was 20. The “number of sweetpotato whitefly adults” value ([1]; 18 days elapsed after setting) was 18, the “number of sweetpotato whitefly adults” value ([1]; 29 days elapsed after setting) was 8 and the “number of sweetpotato whitefly adults” value ([1]; 35 days elapsed after setting) was 5. For the same compound, the “Hatching inhibitory rate (%)” value ([2]; Pyriproxyfen 0.5 mg/cm² on yellow cloth) was 83.7%, the “Hatching inhibitory rate (%)” value ([2]; Pyriproxyfen 2.7 mg/cm² on yellow cloth) was 98.2% and the “Hatching inhibitory rate (%)” value ([2]; Pyriproxyfen 5.3 mg/cm² on yellow cloth) was 94.6%. The “Hatching inhibitory rate (%)” value [3] was 98.2%, the “number of Thrips palmi adults parasitized on the cucumbers” value (shortened to “number … on the cucumbers”) ([4]; 0 days elapsed after setting, blue cloth 15 cm x 15 cm) was 5 and the “number … on the cucumbers” value ([4]; 7 days elapsed after setting, blue cloth) was 5. For the same compound, the “number … on the cucumbers” value ([4]; 14 days elapsed after setting, blue cloth) was 3, the “number … on the cucumbers” value ([4]; 21 days elapsed after setting, blue cloth) was 2 and the “number of sweetpotato whitefly adults” value ([5]; 0 days elapsed after setting) was 53. For the same compound, the “number of sweetpotato whitefly adults” value ([5]; 7 days elapsed after setting) was 40, the “number of sweetpotato whitefly adults” value ([5]; 14 days elapsed after setting) was 35 and the “number of sweetpotato whitefly adults” value ([5]; 18 days elapsed after setting) was 20. For the same compound, the “number of sweetpotato whitefly adults” value ([5]; 29 days elapsed after setting) was 10, the “number of sweetpotato whitefly adults” value ([5]; 35 days elapsed after setting) was 1 and the “Hatching inhibitory rate (%)” value [6] was 100%.
